Where a SMILES comes first, the peptide text is derived from it. Bridges are numbered along the chain shown (N, C = ends).
Legend:
[1] = Serum stability assay (residual activity by inhibition-zone assay); assay type: in vitro ADME; conditions: undiluted fresh mouse serum, 37 °C, read-out inhibition zone on B. megaterium, 0.2 nmol/well, ns vs 0 h
Description: (§1) Hemolytic activity of peptides against fresh erythrocytes from ICR mice (Mus musculus) was assayed according to the standard method. Peptides were diluted with 0.9% NaCl to the indicated concentration. The percentage of hemolysis is determined as (Apep − Ablank)/(Atot − Ablank) × 100, in which “A” represents absorbance measured at 570 nm. Ablank and Apep were evaluated in the absence or presence of peptides. One hundred percent hemolysis (Atot) was obtained in the presence of 1% Triton X-100. For the stability assay, Py4 was incubated in H2O or fresh mouse serum for the indicated times at 37 °C and their residual activity was measured by the inhibition-zone assay.

[2] = test system: fresh erythrocytes from ICR mice; assay: Hemolysis assay; assay type: cell-based, Mus musculus; conditions: 3.125 to 25 µM, 2-fold serial dilutions, in 0.9% NaCl; A570; 100% = 1% Triton X-100
Description: as §1

[3] = test system: Penicillin-sensitive Staphylococcus epidermidis P1111; assay: Inhibition-zone assay, lethal concentration (CL); assay type: cell-based; conditions: penicillin-sensitive S. epidermidis P1111
Description: (§2) The inhibition-zone assay was used to quantify the antibacterial activity of Py4, as described previously. In brief, an overnight bacterial culture from a single colony was inoculated into fresh medium and grew to the late log-phase. A 10 μL aliquot of each culture was diluted in 6 mL pre-heated medium containing 0.8% agar. The mixture was spread on a 9-cm Petri dish, giving a depth of 1 mm. After settling, 3-mm wells were punched in the plate and then 2 μL peptide samples of different concentrations were added to each well. The agar plates were incubated overnight at indicated temperatures. A lethal concentration (CL) was calculated from a plot of d^2 against log n, where d is the diameter (in cm) and n is the amount of sample applied in the well (in nmol). The plot is linear and thus CL can be calculated from the slope (k) and the intercept (m) of this plot. The formula used here was CL = 2.93/ak10^m/k, where a is the thickness of the bacterial plate and CL is in μM.

[4] = test system: Curtobacterium luteum; assay: Inhibition-zone assay, lethal concentration (CL); assay type: cell-based
Description: as §2

[5] = test system: Bacillus megaterium CGMCC 1.0459; assay: Inhibition-zone assay, lethal concentration (CL); assay type: cell-based
Description: as §2

[6] = test system: Staphylococcus aureus J698; assay: Inhibition-zone assay, lethal concentration (CL); assay type: cell-based; conditions: S. aureus J698
Description: as §2

[7] = test system: Penicillin-resistant Staphylococcus epidermidis P1389; assay: Inhibition-zone assay, lethal concentration (CL); assay type: cell-based; conditions: penicillin-resistant S. epidermidis P1389
Description: as §2

[8] = test system: Staphylococcus aureus J706; assay: Inhibition-zone assay, lethal concentration (CL); assay type: cell-based; conditions: S. aureus J706
Description: as §2

[9] = test system: Methicillin-resistant Staphylococcus aureus P1374; assay: Inhibition-zone assay, lethal concentration (CL); assay type: cell-based; conditions: methicillin-resistant S. aureus P1374
Description: as §2

[10] = test system: Staphylococcus aureus J685; assay: Inhibition-zone assay, lethal concentration (CL); assay type: cell-based; conditions: S. aureus J685
Description: as §2

[11] = test system: Methicillin-resistant coagulase negative Staphylococci P1369; assay: Inhibition-zone assay, lethal concentration (CL); assay type: cell-based
Description: as §2

[12] = test system: Methicillin-resistant Staphylococcus aureus P1386; assay: Inhibition-zone assay, lethal concentration (CL); assay type: cell-based; conditions: methicillin-resistant S. aureus P1386
Description: as §2

[13] = test system: Staphylococcus aureus CGMCC 1.89; assay: Inhibition-zone assay, lethal concentration (CL); assay type: cell-based
Description: as §2

[14] = test system: Staphylococcus warneri CGMCC 1.2824; assay: Inhibition-zone assay, lethal concentration (CL); assay type: cell-based
Description: as §2

[15] = test system: S. warneri cells; assay: Cytoplasmic accumulation of UDP-MurNAc-pentapeptide (UMP); assay type: cell-based, Staphylococcus warneri; conditions: 130 µg/mL chloramphenicol pre-treatment 15 min, Py4 0.6 µM or vancomycin 2.0 µM, 30 min
Description: The cytoplasmic UDP-MurNAc-pentapeptide (abbreviated as UMP) accumulation experiment was carried out according to the method previously described. In brief, S. warneri cells were grown at 37 °C to an OD600 of 0.5 in 40 mL broth medium and then the culture was supplemented with 130 μg/mL chloramphenicol to impede bacterial cell proliferation by blocking their protein synthesis. After 15 min of incubation, the culture was divided into three equal portions, and one portion was treated with Py4 (0.6 μM), the second with vancomycin (2.0 μM), and the third was used as an untreated control. UMP was extracted from the harvested cells following 30 min of incubation. UMP was identified by MALDI−TOF on MALDI−TOF/TOF Ultraflextreme^TM (Bruker Daltonics, Bremen, Germany) using 2,5-dihydroxybenzoic acid (DHB) as the matrix in the negative-reflection ion mode.

[16] = test system: Bacillus megaterium cells; assay: Membrane permeability assay (propidium iodide fluorescence); assay type: cell-based; conditions: B. megaterium in PBS pH 7.3, 1 µM propidium iodide, peptide or vancomycin at 10 × CL, exc 525 nm / em 595 nm
Description: The membrane permeability assay was performed according to the method previously described. Meucin-18 and Meucin-49, two known scorpion venom lytic peptides, were used as positive controls and vancomycin, a known bacterial cell-wall synthesis inhibitor without membrane-disruptive ability as a negative control. Bacillus megaterium cells in 500 μL of phosphate buffered saline (PBS) (pH 7.3) were mixed with 1 μM propidium iodide (PI) for 5 min in the dark. Fluorescence was measured with the F-4500 FL spectrophotometer (Hitachi High-Tech Science Corporation, Tokyo, Japan). Once the basal fluorescence reached a constant value, peptides or vancomycin at 10 × CL were added, and changes in fluorescence arbitrary were monitored (λexc = 525 nm; λems = 595 nm).

[17] = test system: S. aureus; design: key: “+”, activity; “-“, no activity”; conditions: Figure 6, antibacterial activity; cited from earlier work
From the text: Compared with plectasin, the natural variant Py4 has two point mutations at positions 14 and 33 (Figure 1A) that are respectively located on the α-helix (Q14K) and the C-loop (G33A) (Figure 1A). These two mutations are interesting considering their mutational effects previously reported in plectasin. (1) Position 14. […] Small dots represent identical residues to plectasin. Positions showing differences in the peptides are boxed and the mutated residues relative to plectasin are colored in red. Positions involved in intramolecular epistasis are linked by one line. The arrow points to the position accounting for differential genetic backgrounds between plectasin and Py4. […] “+”, activity; “-“, no activity”. TEXT PRINTED IN THE PICTURE: Ple ...

Compound: CC[C@H](C)[C@@H]1NC(=O)[C@H](CO)NC(=O)[C@H](CCCCN)NC(=O)[C@@H]2CSSC[C@@H](C(=O)N[C@@H](Cc3ccc(O)cc3)C(=O)O)NC(=O)[C@H](CCCCN)NC(=O)[C@@H]3CSSC[C@H](NC(=O)[C@H](CCCCN)NC(=O)[C@H](CCSC)NC(=O)[C@H](CC(=O)O)NC(=O)[C@H](CC(=O)O)NC(=O)[C@H](CCC(=O)O)NC(=O)[C@H](CC(=O)O)NC(=O)[C@H](Cc4c[nH]c5ccccc45)NC(=O)[C@@H]4CCCN4C(=O)CNC(=O)[C@H](CC(N)=O)NC(=O)[C@@H](NC(=O)CNC(=O)[C@H](Cc4ccccc4)NC(=O)CN)CSSC[C@H](NC(=O)[C@H](Cc4ccc(O)cc4)NC(=O)CNC(=O)CNC(=O)[C@H](CCCCN)NC(=O)[C@H](Cc4ccc(O)cc4)NC(=O)CNC(=O)[C@H](CCCCN)NC1=O)C(=O)N[C@@H](C)C(=O)N[C@@H](CCCCN)C(=O)N[C@@H](C)C(=O)NCC(=O)N[C@@H](Cc1ccccc1)C(=O)N[C@@H](C(C)C)C(=O)N3)C(=O)N[C@@H](Cc1c[nH]cn1)C(=O)N[C@@H](CC(N)=O)C(=O)N[C@@H](Cc1c[nH]cn1)C(=O)N2 [Py4, Pyronesin4] (H-GFGCNGPWDEDDMKCHNHCKSIKGYKGGYCAKAGFVCKCY-OH; disulfide 4-30, 15-37, 19-39)
- residual antibacterial activity after incubation in serum ([1]; 24 h): retained its full antibacterial activity
- residual antibacterial activity after incubation in serum ([1]; 48 h): retained its full antibacterial activity
- hemolysis on mouse blood cells [2]: no significant hemolysis
- CL (lethal concentration) [3]: 4.03 µM
- CL (lethal concentration) [4]: 0.03 µM
- CL (lethal concentration) [5]: 0.67 µM
- CL (lethal concentration) [6]: 2.69 µM
- CL (lethal concentration) [7]: 4.38 µM
- CL (lethal concentration) [8]: 2.51 µM
- CL (lethal concentration) [9]: 2.69 µM
- CL (lethal concentration) [10]: 2.69 µM
- CL (lethal concentration) [11]: 4.78 µM
- CL (lethal concentration) [12]: 2.51 µM
- CL (lethal concentration) [13]: 1.22 µM
- CL (lethal concentration) [14]: 1.06 µM

Compound: CN[C@H](CC(C)C)C(=O)N[C@H]1C(=O)N[C@@H](CC(N)=O)C(=O)N[C@H]2C(=O)N[C@H]3C(=O)N[C@H](C(=O)N[C@H](C(=O)O)c4cc(O)cc(O)c4-c4cc3ccc4O)[C@H](O)c3ccc(c(Cl)c3)Oc3cc2cc(c3O[C@@H]2O[C@H](CO)[C@@H](O)[C@H](O)[C@H]2O[C@H]2C[C@](C)(N)[C@H](O)[C@H](C)O2)Oc2ccc(cc2Cl)[C@H]1O [vancomycin]
- cytoplasmic accumulation of UMP (RP-HPLC peak, MALDI-TOF identified) [15]: common emerging peak
- membrane-disruptive activity (PI fluorescence increase) [16]: no obvious fluorescent increase

Compound: Plectasin (GFGCNGPWDEDDMQCHNHCKSIKGYKGGYCAKGGFVCKCY; UniProt Q53I06 56-95, looked up) [first fungal defensin found in Pseudoplectania nigrella, prototype of fungal defensin-like peptides]
- Activity [17]: +

Source: paper PMC8877149, “A Fungal Defensin Inhibiting Bacterial Cell-Wall Biosynthesis with Non-Hemolysis and Serum Stability” (Journal of Fungi, 2022)
